For test [1], the target named is MAP/microtubule affinity-regulating kinase 3 (Homo sapiens, UniProt P27448). The class given is functional.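 Further: MARK3 affinity measured as one member of a kinome panel.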
The target of another test is Misshapen-like kinase 1 (Homo sapiens, UniProt Q8N4C8). Type of test: functional.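 Further: kinome panel screen with MINK as the panel member.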
The target of test [2] is Serine/threonine-protein kinase N2 (Homo sapiens, UniProt Q16513). The class given is functional.
Test [3] addresses Proto-oncogene tyrosine-protein kinase ROS (Homo sapiens, UniProt P08922). The class given is functional.
Test [4] addresses Interleukin-1 receptor-associated kinase 1 (Homo sapiens, UniProt P51617). The class given is functional.
Test [5] addresses Cyclin-dependent kinase 2 (Homo sapiens, UniProt P24941). Type of test: functional.
Test [6] has as its target Interleukin-1 receptor-associated kinase 4 (Homo sapiens, UniProt Q9NWZ3). The class given is functional.
For test [7], the target named is Testis-specific serine/threonine-protein kinase 1 (Homo sapiens, UniProt Q9BXA7). The class given is functional.
Test [8] concerns the target Protein kinase C iota type (Homo sapiens, UniProt P41743). Type of test: functional.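 Further: measured within a kinome-wide kinase panel, PRKCI as panel member.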
The target in test [9] is Vascular endothelial growth factor receptor 3 (Homo sapiens, UniProt P35916). Type of test: functional.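 Further: value from a kinome-wide profiling panel, with FLT4 as the panel member.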
The target in test [10] is Serine/threonine-protein kinase Nek2 (Homo sapiens, UniProt P51955). Type of test: functional.
Chain of Serine/threonine-protein kinase Nek2 (P51955 whole entry): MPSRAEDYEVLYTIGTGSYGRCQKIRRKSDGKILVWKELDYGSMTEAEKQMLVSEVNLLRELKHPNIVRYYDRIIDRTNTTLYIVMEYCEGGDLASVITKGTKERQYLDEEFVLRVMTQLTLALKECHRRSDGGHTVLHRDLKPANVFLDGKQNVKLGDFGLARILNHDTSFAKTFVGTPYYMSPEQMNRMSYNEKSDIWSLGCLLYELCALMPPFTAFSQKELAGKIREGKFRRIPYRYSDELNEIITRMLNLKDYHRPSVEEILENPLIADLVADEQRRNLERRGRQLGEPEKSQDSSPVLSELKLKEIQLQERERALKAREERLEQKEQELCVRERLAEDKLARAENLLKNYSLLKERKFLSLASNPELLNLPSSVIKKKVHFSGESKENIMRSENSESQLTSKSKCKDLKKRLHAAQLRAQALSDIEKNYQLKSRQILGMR
The target of test [11] is Serine/threonine-protein kinase PLK3 (Homo sapiens, UniProt Q9H4B4). Type of test: functional.
The target in test [12] is 3-phosphoinositide-dependent protein kinase 1 (Homo sapiens, UniProt O15530). Type of test: functional.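 Further: value comes from the Navigating the Kinome panel, PDPK1 member.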
Chain of 3-phosphoinositide-dependent protein kinase 1 (O15530 whole entry): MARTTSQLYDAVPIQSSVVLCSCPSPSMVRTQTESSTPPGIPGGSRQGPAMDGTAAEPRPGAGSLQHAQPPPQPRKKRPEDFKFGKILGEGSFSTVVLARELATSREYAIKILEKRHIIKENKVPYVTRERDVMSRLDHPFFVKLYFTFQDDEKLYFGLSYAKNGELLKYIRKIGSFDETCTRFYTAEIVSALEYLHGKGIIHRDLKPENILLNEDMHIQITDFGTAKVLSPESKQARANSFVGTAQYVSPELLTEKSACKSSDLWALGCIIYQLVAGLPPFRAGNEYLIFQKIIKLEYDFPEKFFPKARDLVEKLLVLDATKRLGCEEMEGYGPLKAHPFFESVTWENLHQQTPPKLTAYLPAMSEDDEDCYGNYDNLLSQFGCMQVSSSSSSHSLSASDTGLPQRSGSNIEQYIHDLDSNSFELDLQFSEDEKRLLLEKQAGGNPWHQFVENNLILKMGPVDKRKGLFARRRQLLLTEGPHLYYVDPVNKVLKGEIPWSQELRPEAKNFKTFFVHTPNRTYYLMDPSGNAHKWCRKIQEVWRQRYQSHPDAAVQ
In test [13] the target is Homeodomain-interacting protein kinase 2 (Homo sapiens, UniProt Q9H2X6). The class given is functional.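 Further: measured within a kinome-wide kinase profiling panel, HIPK2 being one panel member.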
In test [14] the target is Protein kinase C delta type (Homo sapiens, UniProt Q05655). Type of test: functional.
Test [15] has as its target Serine/threonine-protein kinase pim-3 (Homo sapiens, UniProt Q86V86). The class given is functional.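 Further: value obtained as one member of a broad kinase panel profiling effort.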
For test [16], the target named is Receptor tyrosine-protein kinase erbB-4 (Homo sapiens, UniProt Q15303). Type of test: functional.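 Further: ERBB4 member of a kinome-wide kinase profiling panel.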
Test [17] addresses Non-receptor tyrosine-protein kinase TYK2 (Homo sapiens, UniProt P29597). The class given is functional.
The target in test [18] is T1, Sentrin-specific protease 8 (Homo sapiens, UniProt Q96LD8).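 Further: luminescence read-out of SENP8 inhibition, dose-response confirmation following an ultra-high-throughput screen.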
T1 sequence (Q96LD8 whole entry): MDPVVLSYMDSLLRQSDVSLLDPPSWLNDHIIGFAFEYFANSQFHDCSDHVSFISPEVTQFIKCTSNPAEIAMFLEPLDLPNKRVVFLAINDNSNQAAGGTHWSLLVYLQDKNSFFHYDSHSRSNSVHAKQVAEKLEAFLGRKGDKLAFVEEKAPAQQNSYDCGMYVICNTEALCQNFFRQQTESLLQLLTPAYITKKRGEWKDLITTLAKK
Type of test: functional.

The target in another test is LIM domain kinase 1 (Homo sapiens, UniProt P53667). The test can be described thus: Navigating the Kinome. Panel member name: LIMK1. Type of test: functional.
In test [19] the target is Leucine-rich repeat serine/threonine-protein kinase 2 (Homo sapiens, UniProt Q5S007). Type of test: functional.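 Further: value from a broad kinome-wide panel profiling study in which LRRK2 was one of the kinases tested.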
Another test concerns the target Caspase-7 (Homo sapiens, UniProt P55210). The test can be described thus: human caspase-7 inhibitors, dose response, selectivity assay for caspase-6 inhibitor project, biochemical, DEVD-R110 fluorescence, cherry-pick (AID 743295). Type of test: […].
For another test, the target named is ORF 73 (Human herpesvirus 8, UniProt O40947). The test can be described thus: inhibitors of C-LANA binding to LBS DNA, dose response, biochemical, fluorescence polarization, cherry-picked samples (AID 504725).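 Further: fluorescence polarization of a labeled DNA duplex reporting LANA DNA binding; potency is for inhibitors that block LANA binding to the DNA.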 The arrangement: species or system Human gammaherpesvirus 8. (Fluorescence polarisation rises when a labelled molecule tumbles more slowly, as on binding a larger partner.)

The target in test [20] is T2, Insulin-degrading enzyme (Homo sapiens, UniProt P14735).
T2 sequence (P14735 whole entry): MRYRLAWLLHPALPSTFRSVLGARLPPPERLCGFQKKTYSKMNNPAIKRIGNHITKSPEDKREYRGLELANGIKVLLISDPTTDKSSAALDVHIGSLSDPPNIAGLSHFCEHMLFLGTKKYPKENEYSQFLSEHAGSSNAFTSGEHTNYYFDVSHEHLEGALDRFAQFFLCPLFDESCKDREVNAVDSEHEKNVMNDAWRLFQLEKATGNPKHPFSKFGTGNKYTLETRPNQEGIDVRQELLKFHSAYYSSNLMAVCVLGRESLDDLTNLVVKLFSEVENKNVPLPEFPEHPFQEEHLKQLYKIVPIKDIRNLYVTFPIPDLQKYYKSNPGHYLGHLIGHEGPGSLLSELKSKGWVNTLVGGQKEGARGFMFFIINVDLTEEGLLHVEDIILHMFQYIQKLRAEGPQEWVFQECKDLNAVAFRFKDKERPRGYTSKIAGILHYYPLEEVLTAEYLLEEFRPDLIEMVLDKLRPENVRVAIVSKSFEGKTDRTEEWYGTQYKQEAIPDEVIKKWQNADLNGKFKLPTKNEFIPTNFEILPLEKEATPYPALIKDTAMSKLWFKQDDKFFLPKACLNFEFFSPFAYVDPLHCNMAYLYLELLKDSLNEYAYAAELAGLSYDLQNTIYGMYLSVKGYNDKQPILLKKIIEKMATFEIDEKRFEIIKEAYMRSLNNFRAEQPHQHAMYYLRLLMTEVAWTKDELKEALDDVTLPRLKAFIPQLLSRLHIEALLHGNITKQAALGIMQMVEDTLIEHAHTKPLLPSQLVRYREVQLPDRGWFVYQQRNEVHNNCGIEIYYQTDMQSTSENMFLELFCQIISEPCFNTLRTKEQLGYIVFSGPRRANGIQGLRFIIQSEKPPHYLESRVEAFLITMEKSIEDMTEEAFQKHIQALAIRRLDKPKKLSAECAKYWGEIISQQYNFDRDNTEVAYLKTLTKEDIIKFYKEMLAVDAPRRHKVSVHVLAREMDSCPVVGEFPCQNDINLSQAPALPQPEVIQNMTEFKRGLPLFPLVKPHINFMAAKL
The test can be described thus: activators of recombinant IDE enzyme, dose response, counter-screen for IDE activator project, biochemical, fluorescence polarization (AID 588681).

In test [21] the target is T2, Insulin-degrading enzyme. The test can be described thus: activators of endogenous IDE in HEK cells, dose response, cell-based, fluorescence polarization (AID 588439). The class given is functional.

Activity calls are given as the source filed them.

Chain of Interleukin-1 receptor-associated kinase 4 (Q9NWZ3 whole entry): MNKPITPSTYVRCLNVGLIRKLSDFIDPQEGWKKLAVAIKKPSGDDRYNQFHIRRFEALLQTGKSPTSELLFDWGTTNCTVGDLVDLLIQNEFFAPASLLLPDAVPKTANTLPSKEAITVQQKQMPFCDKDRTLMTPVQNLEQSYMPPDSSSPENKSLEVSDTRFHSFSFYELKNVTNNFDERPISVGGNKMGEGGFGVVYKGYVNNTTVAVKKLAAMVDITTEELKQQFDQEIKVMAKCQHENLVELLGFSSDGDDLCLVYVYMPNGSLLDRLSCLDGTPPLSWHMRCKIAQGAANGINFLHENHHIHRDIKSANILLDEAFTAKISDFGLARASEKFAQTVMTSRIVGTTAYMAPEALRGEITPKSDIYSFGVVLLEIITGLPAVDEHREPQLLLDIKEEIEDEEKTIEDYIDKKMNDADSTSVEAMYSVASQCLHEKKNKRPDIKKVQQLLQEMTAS
Chain of Proto-oncogene tyrosine-protein kinase ROS (P08922 whole entry): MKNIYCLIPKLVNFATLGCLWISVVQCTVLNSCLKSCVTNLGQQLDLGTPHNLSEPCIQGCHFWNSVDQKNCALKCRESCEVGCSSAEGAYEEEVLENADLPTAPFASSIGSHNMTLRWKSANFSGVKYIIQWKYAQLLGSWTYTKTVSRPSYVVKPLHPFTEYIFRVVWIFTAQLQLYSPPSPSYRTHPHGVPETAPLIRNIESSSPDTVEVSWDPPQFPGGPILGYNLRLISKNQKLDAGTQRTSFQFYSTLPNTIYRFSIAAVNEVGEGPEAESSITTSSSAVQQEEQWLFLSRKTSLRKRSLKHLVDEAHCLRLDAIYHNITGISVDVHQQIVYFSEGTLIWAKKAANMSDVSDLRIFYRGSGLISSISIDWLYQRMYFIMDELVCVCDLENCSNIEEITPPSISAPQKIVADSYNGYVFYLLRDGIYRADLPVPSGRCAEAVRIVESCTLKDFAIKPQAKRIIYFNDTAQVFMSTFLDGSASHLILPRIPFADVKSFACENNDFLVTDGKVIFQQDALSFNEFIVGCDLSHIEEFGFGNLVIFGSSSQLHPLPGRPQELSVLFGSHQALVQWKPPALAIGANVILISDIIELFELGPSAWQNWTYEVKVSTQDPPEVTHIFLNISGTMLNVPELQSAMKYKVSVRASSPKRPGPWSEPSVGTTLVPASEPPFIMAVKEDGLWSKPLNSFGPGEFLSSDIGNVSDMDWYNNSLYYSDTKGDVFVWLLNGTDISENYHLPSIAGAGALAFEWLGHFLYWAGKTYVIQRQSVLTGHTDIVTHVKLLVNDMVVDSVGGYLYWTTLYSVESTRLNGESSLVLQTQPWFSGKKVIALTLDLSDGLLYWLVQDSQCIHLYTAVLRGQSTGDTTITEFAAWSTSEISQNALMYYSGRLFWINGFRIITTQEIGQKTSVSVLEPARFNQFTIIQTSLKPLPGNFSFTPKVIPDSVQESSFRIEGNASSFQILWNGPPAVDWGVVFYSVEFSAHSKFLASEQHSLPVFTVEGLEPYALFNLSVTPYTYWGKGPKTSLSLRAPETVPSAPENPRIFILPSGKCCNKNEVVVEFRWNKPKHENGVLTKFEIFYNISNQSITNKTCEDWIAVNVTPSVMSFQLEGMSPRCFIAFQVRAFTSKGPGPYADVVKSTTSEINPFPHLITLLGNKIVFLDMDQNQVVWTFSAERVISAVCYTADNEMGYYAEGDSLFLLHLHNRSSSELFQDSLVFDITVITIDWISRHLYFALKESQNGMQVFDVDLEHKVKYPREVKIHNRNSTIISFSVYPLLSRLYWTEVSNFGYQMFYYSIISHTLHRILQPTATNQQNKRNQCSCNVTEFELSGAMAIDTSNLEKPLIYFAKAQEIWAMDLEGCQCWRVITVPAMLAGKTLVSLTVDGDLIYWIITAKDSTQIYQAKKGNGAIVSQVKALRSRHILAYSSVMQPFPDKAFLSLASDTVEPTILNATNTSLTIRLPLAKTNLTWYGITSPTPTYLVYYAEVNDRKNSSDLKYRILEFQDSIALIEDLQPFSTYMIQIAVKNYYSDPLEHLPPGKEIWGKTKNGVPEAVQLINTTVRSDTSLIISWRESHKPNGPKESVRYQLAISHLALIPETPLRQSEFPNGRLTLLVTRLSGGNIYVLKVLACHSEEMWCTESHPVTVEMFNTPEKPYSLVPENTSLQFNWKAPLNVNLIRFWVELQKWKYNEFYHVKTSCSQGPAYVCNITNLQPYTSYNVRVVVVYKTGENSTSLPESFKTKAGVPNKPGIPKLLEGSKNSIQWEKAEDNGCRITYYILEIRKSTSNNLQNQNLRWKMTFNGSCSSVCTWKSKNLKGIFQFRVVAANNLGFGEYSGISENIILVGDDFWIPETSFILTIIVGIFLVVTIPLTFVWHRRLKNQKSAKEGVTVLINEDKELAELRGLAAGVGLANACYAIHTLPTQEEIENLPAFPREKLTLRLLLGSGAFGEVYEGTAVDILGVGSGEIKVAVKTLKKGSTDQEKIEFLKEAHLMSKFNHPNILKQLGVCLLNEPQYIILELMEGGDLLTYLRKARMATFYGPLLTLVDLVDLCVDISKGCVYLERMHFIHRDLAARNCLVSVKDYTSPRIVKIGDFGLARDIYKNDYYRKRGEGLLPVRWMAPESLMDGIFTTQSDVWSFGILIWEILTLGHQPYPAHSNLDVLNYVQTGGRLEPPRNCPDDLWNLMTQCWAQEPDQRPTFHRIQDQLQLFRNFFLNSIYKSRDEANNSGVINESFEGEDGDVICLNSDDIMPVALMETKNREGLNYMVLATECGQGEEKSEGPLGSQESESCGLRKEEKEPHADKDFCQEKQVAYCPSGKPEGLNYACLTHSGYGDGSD
Chain of Interleukin-1 receptor-associated kinase 1 (P51617 whole entry): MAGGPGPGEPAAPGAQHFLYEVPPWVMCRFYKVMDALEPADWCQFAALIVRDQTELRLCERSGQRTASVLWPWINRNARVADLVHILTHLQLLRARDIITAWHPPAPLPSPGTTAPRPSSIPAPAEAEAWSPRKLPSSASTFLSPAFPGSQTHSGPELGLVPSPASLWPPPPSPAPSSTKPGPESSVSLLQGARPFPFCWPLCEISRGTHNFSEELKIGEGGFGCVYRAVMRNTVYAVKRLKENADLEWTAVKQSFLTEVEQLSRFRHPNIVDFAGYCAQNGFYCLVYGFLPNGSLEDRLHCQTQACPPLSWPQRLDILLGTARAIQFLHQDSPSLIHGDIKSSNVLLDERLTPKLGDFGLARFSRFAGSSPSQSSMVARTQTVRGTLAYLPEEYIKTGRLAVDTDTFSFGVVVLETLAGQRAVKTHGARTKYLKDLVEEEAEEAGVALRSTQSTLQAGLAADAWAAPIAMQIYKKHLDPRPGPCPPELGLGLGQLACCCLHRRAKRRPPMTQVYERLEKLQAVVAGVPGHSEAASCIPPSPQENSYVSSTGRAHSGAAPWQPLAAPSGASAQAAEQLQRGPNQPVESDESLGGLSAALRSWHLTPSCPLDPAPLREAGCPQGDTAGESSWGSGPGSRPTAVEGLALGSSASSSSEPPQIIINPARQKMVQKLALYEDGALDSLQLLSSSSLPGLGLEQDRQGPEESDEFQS

For `OC1CCC(Nc2nc(Cl)cc(-c3c[nH]c4ncccc34)n2)CC1` (stereo not given), the Ki – broadly, a measure of affinity in units of concentration, obtained from inhibition or displacement – in [1] was 50.1 nM (active); on Misshapen-like kinase 1 it was 3.16 nM (active); in test [2], 7.94 nM (active); in test [3] it was 158 nM (active); in test [4] it was 79.4 nM (active); in test [5] it was 12.6 nM (active). The Ki was 39.8 nM (active) in test [6]; 126 nM (active) in [7]; 2510 nM (active) in [8]; 200 nM (active) in [9]; 6310 nM (active) in test [10]; > 7940 nM (inactive) in test [11]. Moreover, the Ki in test [12] was 501 nM (active); in test [13], 31.6 nM (active); in [14] it was 63.1 nM (active); in test [15], 3160 nM (active); in test [16], > 3980 nM (inactive); in test [17], 1000 nM (active). Further, the pKi (usually the negative decadic logarithm of the Ki, by convention in mol/L) in test [1] amounted to 7.3; at Misshapen-like kinase 1, 8.5; in test [2], 8.1; in test [3] it was 6.8; in test [4], 7.1; in test [5], 7.9. For the same molecule, the pKi came out at 7.4 in [6]; 6.9 in test [7]; 5.6 in test [8]; 6.7 in test [9]; 5.2 in [10]; 6.3 in [12]. Further, the pKi in test [13] came out at 7.5; in [14] it was 7.2; in test [15], 5.5.

As to `O=C(COC(=O)c1ccc([N+](=O)[O-])s1)Nc1ccc(F)cc1`, the IC50 (usually the concentration needed to halve the response being measured) in test [18] was 4050 nM (active).

Take `COc1cccc(CNC(=O)c2cnc(-c3ccncc3)nc2)c1`: the values for the Ki (at LIM domain kinase 1; in test [19]) were > 3160 nM (inactive) and > 2510 nM (inactive), respectively.

For the molecule `CCN(CC)CCCC(C)n1c2nc(=O)[nH]c(=O)c-2nc2cc(Cl)ccc21` (stereo not given), the AC50 (in general, the concentration giving half of the maximal activity seen) at Caspase-7 was 899 nM (active); at ORF 73 it was 370 nM (active). In addition, the EC50 on Insulin-degrading enzyme [20] and on Insulin-degrading enzyme [21] was > 54700 nM (inactive) throughout.

These data come from ChEMBL document CHEMBL1201862, “PubChem BioAssay data set” (2004).
